Experimental data taken from patent publication US9067974B2, “Polymyxin derivatives and uses thereof” (priority 2006, dated 2015).
Values joined by “and” are separate entries in the source; they are usually repeats but may differ in a detail not shown here. Identical values can stand only once.

Experiments:
[1] = test system: E. coli IH3080 (K1:O18); assay: Experimental E. coli peritonitis model in mice; type: in vivo; conditions: 5 mg/kg subcutaneous
Method: A suspension of E. coli IH3080 (K1:O18) in saline (0.9% NaCl) was prepared from an overnight culture on a blood agar plate (Statens Serum Institut, Copenhagen, Denmark). All mice (female NMR1 from Harlan Scandinavia, Allerød, Denmark; weight, 25-30 g) were inoculated intraperitoneally with 0.5 ml of the suspension containing 0.96×10^6 CFU per ml in the lateral lower quadrant of the abdomen. At 1 h, the CFU count was determined from three mice and the remaining mice (four mice per group) were treated with a subcutaneous injection of 0.2 ml of erythromycin solution in saline (corresponding to 5 mg/kg body weight) or NAB7061 solution in saline (corresponding to 5 mg/kg body weight), or both erythromycin and NAB7061 (corresponding to 5 mg/kg body weight of both drugs; given at two separate sites). Control group received two 0.2 ml injections of saline. At 4.5 h postinfection, all mice were anaesthetized with CO2 and sacrificed. Sterile saline (2 ml) was injected intraperitoneally and the abdomen was gently massaged before it was opened and the fluid sampled. Appropriate dilutions of the fluid were plated on blood agar plates, the plates were incubated overnight, and the colonies were counted.

[2] = biological target: brush-border membrane (BBM) from the renal cortex; assay: Inhibition of [3H] gentamycin binding to brush-border membrane vesicles; design: species or system rats; conditions: 20 μM [3H] gentamycin; 60 min at 4° C.; rat renal cortex BBM vesicles
Text: The binding of the compounds according to this invention to isolated brush-border membrane (BBM) from the renal cortex can be measured indirectly by measuring their ability to inhibit the binding of radiolabelled gentamycin to BBM. Accordingly, the compounds according to this invention that have less affinity to BBM than for example polymyxin B inhibit the binding of radiolabelled gentamycin to a lesser degree than does polymyxin B.
BBM was isolated from the renal cortex of male albino rats by using the Mg^2+/EGTA precipitation technique as described by Nagai et al. (2006). The binding of gentamycin was measured, according to the method described by Nagai et al. (2006) by incubating BBM vesicles (20 μl) in 10 mM HEPES (pH 7.5) with 100 mM mannitol in the presence of 20 μM [^3H] gentamycin (Amersham Biosciences Inc., Buckinghamshire, U.K.) with or without the compound to be tested or a positive control. After an incubation of 60 min at 4° C., 1 ml of ice-cold buffer described above was added, and the mixture was filtered through a Millipore filter (0.45 μm; HAWP). The filter was washed with the buffer and the radioactivity remaining in the filter was measured by using a liquid scintillation counter. The IC50 values were determined as in Nagai et al. (2006) using the Hill equation.

[3] = test system: E. coli IH3080 (K1:O18); assay: Well diffusion growth inhibition on LB agar plates (direct antibacterial activity); type: cell-based, Escherichia coli
Summary of the method: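 Growth inhibition of encapsulated E. coli IH3080 (K1:O18) was measured by well diffusion on LB agar plates. A suspension of about 10^8 cells/ml in 0.9% NaCl, made from an overnight LB agar culture, was spread over the plates and the excess removed. Once dry, five 2 mm wells were drilled per plate and test solutions added, with 0.9% NaCl as control. After 18 h at 37° C, inhibition zone diameters were measured and converted to surface areas in square mm.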

[4] = test system: Acinetobacter baumannii ATCC 19606; assay: as above; type: cell-based; conditions: A. baumannii ATCC 19606
Summary of the method: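 Direct antibacterial activity against Acinetobacter baumannii ATCC 19606 was measured by agar well diffusion on LB plates. The plates were flooded with a suspension of approx. 10^8 cells/ml in 0.9% NaCl, and the excess was removed. Once the surface dried, five wells of 2 mm diameter were drilled per plate. The wells were filled with test compound dissolved in 0.9% NaCl, with plain 0.9% NaCl as control. After 18 h at 37° C., inhibition zone diameters were measured and converted to growth inhibition areas in square mm.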

[5] = test system: Pseudomonas aeruginosa ATCC 27853; assay: as above; type: cell-based; conditions: Ps. aeruginosa ATCC 27853
Summary of the method: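 Pseudomonas aeruginosa ATCC 27853 was tested for direct antibacterial susceptibility by agar well diffusion. A suspension of about 10^8 cells/ml in 0.9% NaCl was spread over LB agar and the excess removed. After drying, 2 mm wells were drilled and filled with compound dissolved in 0.9% NaCl, with NaCl alone as control. Plates were incubated 18 h at 37° C, and inhibition zone diameters were measured and converted to areas in square mm.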

[6] = test system: E. coli ATCC25922; assay: as above; type: cell-based, Escherichia coli
Method: (§1) From an overnight-grown culture of IH3080 on LB agar, a suspension of approx. 10^8 cells/ml was prepared in 0.9% NaCl. Aliquots of this suspension were then pipetted on the agar plates and the plates were gently shaken to spread the suspension evenly on the entire surface of the plate. Thereafter, the unabsorbed part of the suspension was removed by using a Pasteur pipette. After the surface had dried, small wells (diameter, 2 mm) were drilled on the plates (five wells per plate) by using a sterile sharp-edged narrow metal tube, single-use pipette tip, and vacuum suction. […] Controls included 0.9% NaCl solution without the compound to be tested. The plates were then incubated for 18 h at 37° C. whereafter the diameters of growth inhibition zones around each well were measured; the diameter of the well itself was not reduced. Finally, the diameters were converted to surface areas of growth inhibition (in square mm).
(§2) The susceptibility of eleven Gram-negative bacterial strains (nine different species) to NAB734 and polymyxin B was compared by using the susceptibility determination method described in Example 2. The strains included those belonging to the species of Serratia marcescens and Proteus mirabilis, both species generally known to be resistant to polymyxin. Furthermore, the susceptibility determination was also performed by using the Gram-positive bacterium, Staphylococcus aureus, also generally known to be polymyxin-resistant. Ten of the strains originated from ATCC (American Type Culture Collection, Manassas, Va., U.S.A.), and one from CCUG (Culture Collection of University of Gothenburg, Sweden). The source of E. coli IH3080 has been described in Example 2. Polymyxin B sulfate was from Sigma-Aldrich (St. Louis, Mo., USA).

[7] = test system: K. pneumoniae ATCC13883; assay: as above; type: cell-based, Klebsiella pneumoniae
Method: (§3) From an overnight-grown culture of IH3080 on LB agar, a suspension of approx. 10^8 cells/ml was prepared in 0.9% NaCl. Aliquots of this suspension were then pipetted on the agar plates and the plates were gently shaken to spread the suspension evenly on the entire surface of the plate. Thereafter, the unabsorbed part of the suspension was removed by using a Pasteur pipette. After the surface had dried, small wells (diameter, 2 mm) were drilled on the plates (five wells per plate) by using a sterile sharp-edged narrow metal tube, single-use pipette tip, and vacuum suction. Samples (4 μl and 10 μl) of the peptide solution in 0.9% NaCl (at concentrations of 1 μg/ml and 0.1 μg/ml) were then pipetted to the wells and the sample fluids were allowed to absorb. Controls included 0.9% NaCl solution without the compound to be tested. The plates were then incubated for 18 h at 37° C. whereafter the diameters of growth inhibition zones around each well were measured; the diameter of the well itself was not reduced. Finally, the diameters were converted to surface areas of growth inhibition (in square mm).
as §2

[8] = test system: K. pneumoniae CCUG45421; assay: as above; type: cell-based, Klebsiella pneumoniae
Method: as §1, §2

[9] = test system: K. oxytoca ATCC13182; assay: as above; type: cell-based, Klebsiella oxytoca
Method: as §3, §2

[10] = test system: E. cloacae ATCC23355; assay: as above; type: cell-based, Enterobacter cloacae
Method: as §3, §2

[11] = test system: C. freundii ATCC8090; assay: as above; type: cell-based, Citrobacter freundii
Method: as §3, §2

[12] = test system: S. marcescens ATCC8100; assay: as above; type: cell-based, Serratia marcescens
Method: as §3, §2

[13] = test system: P. mirabilis ATCC29906; assay: as above; type: cell-based, Proteus mirabilis
Method: as §3, §2

[14] = test system: S. aureus ATCC 25923; assay: as above; type: cell-based, Staphylococcus aureus
Method: as §1, §2

[15] = test system: E. coli IH3080; assay: Sensitization to rifampin: well diffusion growth inhibition on LB plates containing rifampin; type: cell-based, Escherichia coli; conditions: 4 μg of compound
[16] = test system: A. baumannii ATCC 19606; assay: as above; type: cell-based, Acinetobacter baumannii; conditions: 4 μg of compound
[17] = test system: Ps. aeruginosa ATCC 27853; assay: as above; type: cell-based, Pseudomonas aeruginosa; conditions: 4 μg of compound

CC[C@H]1OC(=O)[C@H](C)[C@@H](O[C@H]2C[C@@](C)(OC)[C@@H](O)[C@H](C)O2)[C@H](C)[C@@H](O[C@@H]2O[C@H](C)C[C@H](N(C)C)[C@H]2O)[C@](C)(O)C[C@@H](C)C(=O)[C@H](C)[C@@H](O)[C@]1(C)O [erythromycin]
CFU counts in peritoneal fluid ([1]; 4.5 h postinfection ([…] after the treatment)): 8.9 (±6.4)×10^6 per ml | Factor of increase of the bacterial count ([1]; from 1 h to 4.5 h postinfection): 12

gentamycin [unlabelled gentamycin]
IC50 [2]: 90.2 µM

OA-Thr-DSer-cy[Dab-Dab-DPhe-Thr-Dab-Dab-Thr-] [NAB 734]
Antibacterial activity (growth inhibition area around a well) ([3]; 4 μg of compound per well): 113 square millimeters | Antibacterial activity (growth inhibition area around a well) ([3]; 10 μg of compound per well): 177 square millimeters and 154 square millimeters | Antibacterial activity (growth inhibition area around a well) ([4]; 4 μg per well): 38 square millimeters and 57 square millimeters | Antibacterial activity (growth inhibition area around a well) ([4]; 10 μg per well): 95 square millimeters and 79 square millimeters | Antibacterial activity (growth inhibition area around a well) ([5]; 4 μg per well): 13 square millimeters | Antibacterial activity (growth inhibition area around a well) ([5]; 10 μg per well): 50 square millimeters | Antibacterial activity (growth inhibition area around a well) ([6]; 4 μg per well): 133 square millimeters | Antibacterial activity (growth inhibition area around a well) ([6]; 10 μg per well): 177 square millimeters | Antibacterial activity (growth inhibition area around a well) ([7]; 4 μg per well): 64 square millimeters | Antibacterial activity (growth inhibition area around a well) ([7]; 10 μg per well): 113 square millimeters | Antibacterial activity (growth inhibition area around a well) ([8]; 4 μg per well): 64 square millimeters | Antibacterial activity (growth inhibition area around a well) ([8]; 10 μg per well): 104 square millimeters | Antibacterial activity (growth inhibition area around a well) ([9]; 4 μg per well): 95 square millimeters | Antibacterial activity (growth inhibition area around a well) ([9]; 10 μg per well): 143 square millimeters | Antibacterial activity (growth inhibition area around a well) ([10]; 4 μg per well): 133 square millimeters | Antibacterial activity (growth inhibition area around a well) ([10]; 10 μg per well): 177 square millimeters | Antibacterial activity (growth inhibition area around a well) ([11]; 4 μg per well): 133 square millimeters | Antibacterial activity (growth inhibition area around a well) ([11]; 10 μg per well): 177 square millimeters | Antibacterial activity (growth inhibition area around a well) ([12]; 4 μg per well): 0 square millimeters | Antibacterial activity (growth inhibition area around a well) ([12]; 10 μg per well): 0 square millimeters | Antibacterial activity (growth inhibition area around a well) ([13]; 4 μg per well): 0 square millimeters | Antibacterial activity (growth inhibition area around a well) ([13]; 10 μg per well): 0 square millimeters | Antibacterial activity (growth inhibition area around a well) ([14]; 4 μg per well): 0 square millimeters | Antibacterial activity (growth inhibition area around a well) ([14]; 10 μg per well): 0 square millimeters | Antibacterial activity in the presence of rifampin (growth inhibition area around a well) ([15]; rifampin 0 μg/ml): 113 square millimeters | Antibacterial activity in the presence of rifampin (growth inhibition area around a well) ([15]; rifampin 0.1 μg/ml): 154 square millimeters | Antibacterial activity in the presence of rifampin (growth inhibition area around a well) ([15]; rifampin 1.0 μg/ml): 201 square millimeters | Antibacterial activity in the presence of rifampin (growth inhibition area around a well) ([16]; rifampin 0 μg/ml): 38 square millimeters | Antibacterial activity in the presence of rifampin (growth inhibition area around a well) ([16]; rifampin 0.1 μg/ml): 201 square millimeters | Antibacterial activity in the presence of rifampin (growth inhibition area around a well) ([16]; rifampin 0.3 μg/ml): 283 square millimeters | Antibacterial activity in the presence of rifampin (growth inhibition area around a well) ([17]; rifampin 0 μg/ml): 13 square millimeters | Antibacterial activity in the presence of rifampin (growth inhibition area around a well) ([17]; rifampin 0.1 μg/ml): 20 square millimeters | Antibacterial activity in the presence of rifampin (growth inhibition area around a well) ([17]; rifampin 0.3 μg/ml): 20 square millimeters
